# Assay results reported in PubChem BioAssay (NCI).
# Several values for one entry are separate records, joined by “and”; a condition that tells them apart may be missing. Equal entries are not always repeated.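 All cell lines were grown in 96-well plates and treated with compound for 48 hours. GI50 is the concentration that inhibits growth by half. The concentration for full growth arrest is given as TGI.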
# How the values were obtained:
# Test in all cases: growth of human tumour cells (NCI), 48 h
# HL-60(TB) leukemia = system: HL-60(TB) leukemia
# IGROV1 ovarian = system: IGROV1 ovarian
# K-562 leukemia = system: K-562 leukemia
# NCI-H226 lung = system: NCI-H226 lung
# NCI-H23 lung = system: NCI-H23 lung
# SK-MEL-5 melanoma = system: SK-MEL-5 melanoma
# SK-OV-3 ovarian = system: SK-OV-3 ovarian
# SN12C renal = system: SN12C renal
# SR leukemia = system: SR leukemia
# UO-31 renal = system: UO-31 renal
SMILES,GI50 (HL-60(TB) leukemia),TGI (HL-60(TB) leukemia),GI50 (IGROV1 ovarian),TGI (IGROV1 ovarian),GI50 (K-562 leukemia),TGI (K-562 leukemia),GI50 (NCI-H226 lung),TGI (NCI-H226 lung),GI50 (NCI-H23 lung),TGI (NCI-H23 lung),GI50 (SK-MEL-5 melanoma),TGI (SK-MEL-5 melanoma),GI50 (SK-OV-3 ovarian),TGI (SK-OV-3 ovarian),GI50 (SN12C renal),TGI (SN12C renal),GI50 (SR leukemia),TGI (SR leukemia),GI50 (UO-31 renal),TGI (UO-31 renal)
COc1cc(/C=C/C(=O)c2c(-c3ccc(Cl)cc3)nc3sc(C)nn23)cc(OC)c1OC,5.94 µM,40.6 µM,70.1 µM,> 100 µM,4.49 µM,> 100 µM,23.7 µM,> 100 µM,24.8 µM,> 100 µM,3.1 µM,15.6 µM,66.6 µM,> 100 µM,53.9 µM,> 100 µM,4.9 µM,> 100 µM,7.27 µM,> 100 µM
COc1ccc(S(=O)(=O)NCCCNc2nccc(-c3c(-c4ccc(F)cc4)nc4sccn34)n2)cc1,7.51 µM,> 100 µM,5.59 µM,> 100 µM,2.99 µM,> 100 µM,6.06 µM,> 100 µM,15.3 µM,> 100 µM,5.49 µM,74.9 µM,8.11 µM,> 100 µM,7.55 µM,> 100 µM,3.69 µM,> 100 µM,3.83 µM,> 100 µM
NC(=O)NC(=O)C1CCC(=O)N1S(=O)(=O)c1ccc(Cl)cc1 (configuration not stated),,> 100 µM,,> 100 µM,,> 100 µM,,> 100 µM,,> 100 µM,,> 100 µM,,> 100 µM,,> 100 µM,,> 100 µM,,> 100 µM
O=C1OC(c2ccccc2)=N/C1=C\c1ccc(N(CCCl)CCCl)cc1,,> 100 µM,,> 100 µM,,> 100 µM,,> 100 µM,,> 100 µM,,> 100 µM,,> 100 µM,,> 100 µM,,> 69.7 µM,,> 100 µM
Cn1c(=O)c(Oc2ccc(F)cc2F)cc2cnc(NC3CCC(O)CC3)nc21 (configuration not stated),> 25 µM,> 25 µM,> 25 µM,> 25 µM,> 25 µM,> 25 µM,> 25 µM,> 25 µM,> 25 µM,> 25 µM,> 25 µM,> 25 µM,> 25 µM,> 25 µM,> 25 µM,> 25 µM,> 25 µM,> 25 µM,12.1 µM,> 25 µM
CCNc1nc(-c2ccc(Cl)c(OC)c2)c(-c2ccnc(NCCNS(=O)(=O)c3ccc(Cl)cc3)n2)s1,2.87 µM,7.16 µM,4.68 µM,> 100 µM,3.17 µM,> 100 µM,2.81 µM,14.3 µM,3.5 µM,> 100 µM,1.56 µM,3.23 µM,3.66 µM,55.1 µM,3.41 µM,> 100 µM,2.7 µM,7.51 µM,2.51 µM,6.37 µM
COc1ccc(C[C@H](N)C(=O)N[C@@H]2[C@@H](CO)OC(n3cnc4c(N(C)C)ncnc43)[C@@H]2O)cc1 (some centres not stated),0.454 µM,1.7 µM,0.539 µM,1.73 µM,0.293 µM,1.46 µM,0.497 µM,1.27 µM,0.553 µM,1.82 µM,0.287 µM,0.914 µM,,1.5 µM,,1.31 µM,0.17 µM,1.32 µM,1.56 µM,6.57 µM
CCC(=C(c1ccc(OCCN(CC)CC)cc1)c1ccc(OCCN(CC)CC)cc1)c1ccc(Cl)cc1,0.626 µM,1.32 µM,0.618 µM,1.15 µM,0.156 µM,0.898 µM,0.679 µM,1.48 µM,0.652 µM,1.41 µM,0.593 µM,1.06 µM,0.594 µM,1.16 µM,0.606 µM,1.24 µM,0.249 µM,0.981 µM,0.484 µM,0.94 µM
CS(=O)(=O)Nc1ccc(Nc2c3ccccc3nc3cc(Cl)ccc23)cc1,0.843 µM,24.6 µM,1.62 µM,19 µM,2.11 µM,> 48.6 µM,0.672 µM,6.17 µM,1.67 µM,18.9 µM,1.13 µM,2.62 µM,1.28 µM,13.3 µM,0.654 µM,16.1 µM,0.177 µM,16 µM,0.58 µM,8.96 µM
NC1CC(n2ccc(=O)[nH]c2=O)OC1C(O)CO (configuration not stated),,> 100 µM,,> 100 µM,,> 100 µM,,> 100 µM,,> 100 µM,,> 100 µM,,> 100 µM,,> 100 µM,,> 100 µM,,> 100 µM
Oc1ccc(/C=N/Nc2nnc(N/N=C/c3ccc(O)cc3O)c3ccccc23)c(O)c1,0.376 µM,0.598 µM and 4.81 µM,0.493 µM,3.24 µM,0.346 µM,,1.92 µM,6.98 µM,0.707 µM,2.77 µM,0.413 µM,0.744 µM and 3.19 µM,0.552 µM,4.5 µM,0.507 µM,6.72 µM,0.205 µM,0.592 µM and 0.719 µM,0.282 µM,3.92 µM
OCCn1c(-c2ccncc2)c(-c2ccc(F)cc2)c2ncccc21,> 25 µM,> 25 µM,> 25 µM,> 25 µM,> 25 µM,> 25 µM,> 25 µM,> 25 µM,> 25 µM,> 25 µM,> 25 µM,> 25 µM,> 25 µM,> 25 µM,> 25 µM,> 25 µM,> 25 µM,> 25 µM,12.5 µM,> 25 µM
Cc1c(-c2ccc(N3CCc4cccc(C(=O)Nc5nc6ccccc6s5)c4C3)nc2C(=O)O)cnn1CC12CC3CC(CC(C3)C1)C2,3.43 µM,18.7 µM,12.6 µM,31.5 µM,7.51 µM,> 100 µM,13.7 µM,50.6 µM,13.4 µM,35.4 µM,2.79 µM,9.79 µM,6.99 µM,21.3 µM,6.93 µM,29.8 µM,12.8 µM,> 57.4 µM,2.6 µM,9.36 µM
